The text below walks through data of US20260285853A1, “COMPOUNDS AND METHODS FOR MODULATING SPLICING” (REMIX THERAPEUTICS INC., priority 2023, published 2026).

Common to all, as to type: cell-based
Assay [1] relates to HTT mRNA. The experiment in a line: Gene panel canonical junction qPCR assay, decrease in CJ mRNA, Table 3. The conditions noted are these: decrease in canonical junction (CJ) mRNA, gene panel qPCR, Table 3. The essentials:
(§1)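 A673 cells were plated, left to adhere for 24 h, then dosed; K562 cells were plated in 96- or 384-well format and dosed directly. Both were incubated 24 h at 37 °C with an 11-point 3-fold series (top 10 uM final). Canonical junction mRNA was then read by cDNA synthesis and qPCR.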
(In general: Real-time PCR tracks product formation cycle by cycle.)

In assay [2] the test system is MYB mRNA. The description is as above. The conditions noted are these: decrease in canonical junction (CJ) mRNA, gene panel qPCR, Table 3. An outline of the steps: as §1
In assay [3] the test system is SH-SY5Y (human neuroblastoma) cells. In words: Cell viability, Cell Titer Glo 2.0 assay. The conditions noted are these: read-out: Viability SHSY5Y.3 GI50. An outline of the steps:
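SH-SY5Y neuroblastoma cells are exposed to test compounds for 72 hours at 37 °C and 5% CO2, with final DMSO held at 0.1%. Cell viability is then measured with the CellTiter-Glo 2.0 assay.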
In general terms: Cellular ATP, detected with luciferase, serves as a proxy for viable cell number.

Assay [4] concerns MYB mRNA. The experiment in a line: Splicing RT-qPCR assay (THP), Table 2A. The note with it: Table 2A (THP); for AC50: AJ mRNA increase, read-out: MYB AJ (increase in alternative junction mRNA, AC50); for IC50: CJ mRNA decrease, read-out: MYB CJ (decrease in canonical junction mRNA, IC50).
The subject of assay [5] is HTT mRNA. In words: Splicing RT-qPCR assay (THP), Table 2A. The conditions noted are these: Table 2A (THP); for AC50: AJ mRNA increase, read-out: HTT AJ (increase in alternative junction mRNA, AC50); for IC50: CJ mRNA decrease, read-out: HTT CJ (decrease in canonical junction mRNA, IC50).

Turning to `Cc1cn2cc(NC(=O)c3ccc(N4CC5(CCNCC5)C4)c4cn(C)nc34)nc2c(C)n1` [Compound 562], the half-inhibitory concentration (IC50) in the assay with HTT mRNA [1], in the assay with MYB mRNA [2], in the assay on MYB mRNA [4] and with HTT mRNA [5] was greater than 10000 nM each time. Further, the concentration for 50% growth inhibition (GI50) (usually the concentration giving 50% growth inhibition) in assay [3] is greater than 10000 nM. The half-maximal activity concentration (AC50) in the assay on MYB mRNA [4] and in the assay on HTT mRNA [5] was greater than 10000 nM in each case.
Regarding `Cc1cn2cc(NC(=O)c3ccc(N4CCC5(CCN5)CC4)c4cn(C)nc34)nc2c(C)n1` [Compound 563, 4-(1,7-diazaspiro[3.5]nonan-7-yl)-N-(6,8-dimethyl-imidazo[1,2-a]pyrazin-2-yl)-2-methyl-indazole-7-carboxamide], the IC50 (as a rule, the concentration at which inhibition is half-maximal) in the assay with HTT mRNA [1] was greater than 10000 nM; in the assay with MYB mRNA [2], 100 to 1000 nM; in the assay with MYB mRNA [4], 100 to 1000 nM; with HTT mRNA [5], greater than 10000 nM. Besides, the GI50 in assay [3] is greater than 10000 nM. Also, the half-maximal activity concentration (AC50) – broadly, the concentration at which the activity in the assay is half-maximal – with MYB mRNA [4] was 100 to 1000 nM; in the assay with HTT mRNA [5], greater than 10000 nM.
In the case of `Cc1cn2cc(NC(=O)c3ccc(N(C)C4CCNCC4)c4cn(C)nc34)nc2c(C)n1` [Compound 564], the IC50 with HTT mRNA [1], with MYB mRNA [2], in the assay on MYB mRNA [4] and with HTT mRNA [5] was 100 to 1000 nM in each case. In assay [3], the concentration for 50% growth inhibition (GI50) fell in the range of 100 to 1000 nM. Also, the AC50 in the assay on MYB mRNA [4] and in the assay on HTT mRNA [5] was 100 to 1000 nM each time.
Regarding `Cc1cn2cc(NC(=O)c3ccc(OC4CCNCC4)c4cn(C)nc34)nc2c(C)n1` [Compound 565], the IC50 with HTT mRNA [1], in the assay on MYB mRNA [2], with MYB mRNA [4] and in the assay on HTT mRNA [5] was 100 to 1000 nM in each case. Also, in assay [3], the GI50 fell in the range of 100 to 1000 nM. The AC50 in the assay on MYB mRNA [4] and with HTT mRNA [5] was 100 to 1000 nM each time.
As for `COc1cc2nn(C)cc2cc1NC(=O)c1ccc(OC2CCNCC2)c2cn(C)nc12` [Compound 566], the concentration for half-maximal inhibition (IC50) in the assay on HTT mRNA [1], in the assay with MYB mRNA [2], in the assay with MYB mRNA [4] and in the assay with HTT mRNA [5] was 100 to 1000 nM in each case. The concentration for 50% growth inhibition (GI50) in assay [3] fell in the range of 1000 to 10000 nM. The concentration at half-maximal activity (AC50) in the assay with MYB mRNA [4] fell in the range of 100 to 1000 nM; in the assay on HTT mRNA [5], 1000 to 10000 nM.
With `COc1cc2nn(C)cc2cc1NC(=O)c1ccc(OC2CCNC2)c2cn(C)nc12` (stereo not shown) [Compound 567], the IC50 in the assay with HTT mRNA [1], with MYB mRNA [2], in the assay with MYB mRNA [4] and in the assay with HTT mRNA [5] was 100 to 1000 nM throughout. Moreover, the GI50 in assay [3] fell in the range of 1000 to 10000 nM. In addition, the concentration at half-maximal activity (AC50) in the assay with MYB mRNA [4] fell in the range of 100 to 1000 nM; in the assay with HTT mRNA [5], 1000 to 10000 nM.
Take `COc1cc2nn(C)cc2cc1NC(=O)c1ccc(N2CCNC(C)C2)c2cn(C)nc12` (stereo not shown) [Compound 568]: the IC50 with HTT mRNA [1], with MYB mRNA [2], in the assay with MYB mRNA [4] and in the assay with HTT mRNA [5] was 100 to 1000 nM throughout. Further, the GI50 in assay [3] fell in the range of 1000 to 10000 nM. In addition, the values for the concentration at half-maximal activity (AC50) in the assay on MYB mRNA [4] and in the assay on HTT mRNA [5] were 100 to 1000 nM and 1000 to 10000 nM, respectively.
Take `Cc1cn2cc(NC(=O)c3ccc(N4CCC(NC5CC5)CC4)c4cn(C)nc34)c(OC(C)C)c2c(C)n1` [Compound 569, 4-[4-(cyclopropylamino)-1-piperidyl]-N-(8-isopropoxy-1,3-dimethyl-pyrrolo[1,2-a]pyrazin-7-yl)-2-methyl-indazole-7-carboxamide]: the concentration for half-maximal inhibition (IC50) in the assay with HTT mRNA [1], in the assay on MYB mRNA [2], in the assay with MYB mRNA [4] and with HTT mRNA [5] was greater than 10000 nM in each case. In addition, in assay [3], the GI50 fell in the range of 1000 to 10000 nM. Also, the AC50 with MYB mRNA [4] and in the assay on HTT mRNA [5] was greater than 10000 nM in each case.
With `Cc1cn2cc(NC(=O)c3ccc(N4CCC(NC5CC5)CC4)c4cn(C)nc34)cc2c(CNS(C)(=O)=O)n1` [Compound 570, 4-[4-(cyclopropyl-amino)-1-piperidyl]-N-[1-(methanesulfonamidometh-yl)-3-methyl-pyrrolo[1,2-a]-pyrazin-7-yl]-2-methyl-indazole-7-carboxamide], the IC50 with HTT mRNA [1], in the assay on MYB mRNA [2], with MYB mRNA [4] and in the assay on HTT mRNA [5] was greater than 10000 nM each time. In addition, in assay [3], the GI50 is greater than 10000 nM. In addition, the half-maximal activity concentration (AC50) in the assay with MYB mRNA [4] and with HTT mRNA [5] was greater than 10000 nM in each case.
`CCNC1(C)CCN(c2ccc(C(=O)Nc3cn4cc(C)nc(C)c4c3F)c3nn(C)cc23)CC1` [Compound 571, 4-[4-(ethylamino)-4-methyl-1-piperidyl]-N-(8-fluoro-1,3-dimethyl-pyrrolo[1,2-a]-pyrazin-7-yl)-2-methyl-indazole-7-carboxamide]: the IC50 is greater than 10000 nM in the assay on HTT mRNA [1], 1000 to 10000 nM in the assay with MYB mRNA [2], 1000 to 10000 nM in the assay on MYB mRNA [4] and greater than 10000 nM in the assay on HTT mRNA [5]. For the same compound, the GI50 in assay [3] lay within 1000 to 10000 nM. Further, the AC50 with MYB mRNA [4] is 1000 to 10000 nM; in the assay on HTT mRNA [5], greater than 10000 nM.
Turning to `CCNC1CCN(c2ccc(C(=O)Nc3nc4c(C)nc(C)cc4[nH]3)c3nn(C)cc23)CC1` [Compound 572, N-(4,6-dimethyl-1H-imidazo[4,5-c]-pyridin-2-yl)-4-[4-(ethylamino)-1-piperidyl]-2-methyl-indazole-7-carboxamide], the half-inhibitory concentration (IC50) in the assay on HTT mRNA [1], with MYB mRNA [2], in the assay with MYB mRNA [4] and in the assay with HTT mRNA [5] was 1000 to 10000 nM in each case. For the same compound, in assay [3], the GI50 lay in the range of 1000 to 10000 nM. Besides, the AC50 in the assay on MYB mRNA [4] is 1000 to 10000 nM; in the assay on HTT mRNA [5], greater than 10000 nM.
Turning to `COc1cn2nc(C)nc2cc1NC(=O)c1ccc(N2CCC(NC3CC3)CC2)c2cn(C)nc12` [Compound 573, 4-[4-(cyclopropylamino)-1-piperidyl]-N-(6-methoxy-2-methyl-[1,2,4]triazolo-[1,5-a]-pyridin-7-yl)-2-methyl-indazole-7-carboxamide], the IC50 in the assay with HTT mRNA [1], in the assay on MYB mRNA [2], with MYB mRNA [4] and with HTT mRNA [5] was greater than 10000 nM each time. Also, the GI50 in assay [3] was greater than 10000 nM. For the same compound, the half-maximal activity concentration (AC50) with MYB mRNA [4] and in the assay with HTT mRNA [5] was greater than 10000 nM in each case.
Consider `COc1cc2nccn2cc1NC(=O)c1ccc(N2CCC(NC3CC3)CC2)c2cn(C)nc12` [Compound 574, 4-[4-(cyclopropylamino)-1-piperidyl]-N-(7-methoxy-imidazo[1,2-a]pyridin-6-yl)-2-methylindazole-7-carboxamide], for which the 50% inhibitory concentration (IC50) with HTT mRNA [1], with MYB mRNA [2], in the assay with MYB mRNA [4] and in the assay on HTT mRNA [5] was greater than 10000 nM each time. Besides, in assay [3], the GI50 was 1000 to 10000 nM. In addition, the AC50 in the assay on MYB mRNA [4] and in the assay with HTT mRNA [5] was greater than 10000 nM each time.
Take `Cc1cn2cc(NC(=O)c3ccc(N4CCC(NCC5CC5)CC4)c4cn(C)nc34)nc2c(C)n1` [Compound 575]: the IC50 in the assay on HTT mRNA [1] is greater than 10000 nM; with MYB mRNA [2], 1000 to 10000 nM; in the assay with MYB mRNA [4], 1000 to 10000 nM; with HTT mRNA [5], greater than 10000 nM. The GI50 in assay [3] was in the range of 1000 to 10000 nM. Also, the values for the AC50 in the assay with MYB mRNA [4] and with HTT mRNA [5] were 100 to 1000 nM and greater than 10000 nM, respectively.
Take `CCNC1CC2(C1)CN(c1ccc(C(=O)Nc3cn4cc(C)nc(C)c4n3)c3nn(C)cc13)C2` [Compound 576]: the IC50 in the assay on HTT mRNA [1], in the assay on MYB mRNA [2], with MYB mRNA [4] and with HTT mRNA [5] was greater than 10000 nM in each case. In assay [3], the GI50 lay within 1000 to 10000 nM. The concentration at half-maximal activity (AC50) in the assay with MYB mRNA [4] and in the assay with HTT mRNA [5] was greater than 10000 nM in each case.
Regarding `COc1cc2nn(C)cc2cc1NC(=O)c1ccc(N2CCC(NCC3CC3)CC2)c2cn(C)nc12` [Compound 577], the half-maximal inhibitory concentration (IC50) in the assay with HTT mRNA [1] was in the range of 1000 to 10000 nM; in the assay on MYB mRNA [2] it was 100 to 1000 nM; with MYB mRNA [4], 100 to 1000 nM; in the assay with HTT mRNA [5], 1000 to 10000 nM. In addition, the concentration for 50% growth inhibition (GI50) in assay [3] lay in the range of 1000 to 10000 nM. In addition, the AC50 was less than 100 nM with MYB mRNA [4] and 1000 to 10000 nM with HTT mRNA [5].
